{"source": "patent US20260325653A1", "about": "“HETEROBIFUNCTIONAL SMALL MOLECULES THAT DEUBIQUITINYLATE AND STABILIZE TARGET PROTEINS BY RECRUITING USP7” (ICAHN SCHOOL OF MEDICINE AT MOUNT SINAI, priority 2023, published 2026)", "system": "CFTR mRNA", "assay": "RT-qPCR analysis of CFTR mRNA levels in CFBE41o− 4.7 ΔF508-CFTR cells", "assay_type": "cell-based, human", "conditions": "10 μM, 24 h", "data": [{"smiles": "Cc1ccc(NC(=O)C2(c3ccc4c(c3)OC(F)(F)O4)CC2)nc1-c1cccc(C(=O)NCCCCCCCCCNC(=O)CNCc2ccc(-c3c4ncn(CC5(O)CCN(C(=O)C[C@@H](C)c6ccccc6)CC5)c(=O)c4nn3C)cc2)c1", "note": "[MS6869, (R)-3-(6-(1-(2,2-difluorobenzo[d][1,3]dioxol-5-yl)cyclopropane-1-carboxamido)-3-methylpyridin-2-yl)-N-(9-(2-((4-(6-((4-hydroxy-1-(3-phenylbutanoyl)piperidin-4-yl)methyl)-2-methyl-7-oxo-6,7-dihydro-2H-pyrazolo[4,3-d]pyrimidin-3-yl)benzyl)amino)acetamido)nonyl)benzamide]", "values": [{"measurement": "mRNA levels of CFTR", "result": "do not affect the mRNA levels of CFTR"}]}]}
